Broadly, the EC50 is the concentration needed to bring the measured effect to its halfway point.

Some results are limits rather than exact numbers.

Here are results for 19 compounds from US7517874B2 (priority 2007, dated 2009).

One experiment has as its target T1, rat CB2 receptor (rCB2) (Rattus norvegicus, UniProt Q9QZN9).
T1 sequence (Q9QZN9 1-360): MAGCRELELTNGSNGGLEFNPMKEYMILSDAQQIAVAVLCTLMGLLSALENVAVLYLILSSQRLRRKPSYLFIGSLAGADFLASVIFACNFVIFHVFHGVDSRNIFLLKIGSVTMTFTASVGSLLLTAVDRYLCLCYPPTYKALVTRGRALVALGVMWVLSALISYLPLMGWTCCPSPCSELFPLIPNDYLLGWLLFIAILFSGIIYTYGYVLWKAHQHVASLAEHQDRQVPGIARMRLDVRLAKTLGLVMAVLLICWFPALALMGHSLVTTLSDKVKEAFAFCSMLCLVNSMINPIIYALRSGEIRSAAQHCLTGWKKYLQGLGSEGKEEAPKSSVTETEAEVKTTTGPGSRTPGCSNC
The experiment can be described thus: cell-based. The format is cell-based. The following applies: agonist or inverse agonist at rCB2. In outline:
(§1)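 Agonism or inverse agonism was assessed as change in intracellular cAMP in CHO-K1 cells expressing human CB1 or rat CB2 (genomic DNA, pcDNA3.1).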

The target in experiment [1] is human CB1 receptor (hCB1) (Homo sapiens, UniProt P21554). The experiment can be described thus: cell-based. The format is cell-based. The following applies: for +/− HCB1: agonist or inverse agonist at hCB1. In outline: as §1
Sequence of human CB1 receptor (hCB1) (P21554 whole entry): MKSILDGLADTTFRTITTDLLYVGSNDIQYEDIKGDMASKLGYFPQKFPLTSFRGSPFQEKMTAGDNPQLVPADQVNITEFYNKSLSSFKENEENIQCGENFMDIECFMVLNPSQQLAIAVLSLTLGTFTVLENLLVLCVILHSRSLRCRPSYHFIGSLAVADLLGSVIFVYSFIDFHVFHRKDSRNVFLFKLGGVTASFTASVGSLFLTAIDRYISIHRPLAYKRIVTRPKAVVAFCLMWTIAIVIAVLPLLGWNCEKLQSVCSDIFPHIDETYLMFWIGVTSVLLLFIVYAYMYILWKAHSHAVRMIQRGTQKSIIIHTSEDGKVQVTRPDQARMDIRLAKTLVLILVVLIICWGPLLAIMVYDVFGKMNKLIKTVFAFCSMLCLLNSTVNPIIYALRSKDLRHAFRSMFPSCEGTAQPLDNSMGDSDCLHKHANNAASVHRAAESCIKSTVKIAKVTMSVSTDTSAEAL

Consider `CNC(=O)[C@@H](NC(=O)c1nc(-c2cccc(C(F)(F)F)c2)n2c1CN(C)CCC2)C(C)(C)C` [Compound 438, (S)-N-(3,3-dimethyl-1-(methylamino)-1-oxobutan-2-yl)-8-methyl-3-(3-(trifluoromethyl)phenyl)-6,7,8,9-tetrahydro-5H-imidazo[1,5-a][1,4]diazepine-1-carboxamide], for which the “+/− RCB2” value at rat CB2 receptor (rCB2) was “−”. In experiment [1], this compound had a concentration for a half-maximal effect (EC50) of over 10 µM.

Take `CNC(=O)[C@@H](NC(=O)c1nc(/C=C/C2CCCCC2)n2c1CN(C)CCC2)C(C)(C)C` [Compound 439]: the “+/− RCB2” value at rat CB2 receptor (rCB2) is “+”. In experiment [1], the EC50 was over 10 µM.

As for `CNC(=O)[C@@H](NC(=O)c1nc(-c2ccoc2)n2c1CN(C)CCC2)C(C)(C)C` [Compound 440, (S)-N-(3,3-dimethyl-1-(methylamino)-1-oxobutan-2-yl)-3-(furan-3-yl)-8-methyl-6,7,8,9-tetrahydro-5H-imidazo[1,5-a][1,4]diazepine-1-carboxamide], the “+/− RCB2” value at rat CB2 receptor (rCB2) is given as “+”. For the same compound, the EC50 in experiment [1] is over 10 µM.

For `C=C(C)c1nc(C(=O)N[C@H](C(=O)NC)C(C)(C)C)c2n1CCCN(C)C2` [Compound 441, (S)-N-(3,3-dimethyl-1-(methylamino)-1-oxobutan-2-yl)-8-methyl-3-(prop-1-en-2-yl)-6,7,8,9-tetrahydro-5H-imidazo[1,5-a][1,4]diazepine-1-carboxamide], on rat CB2 receptor (rCB2), the “+/− RCB2” value was “+”. In addition, the “+/− HCB1” value in experiment [1] is listed as “+”.

Regarding `CNC(=O)[C@@H](NC(=O)c1nc(-c2c(C)noc2C)n2c1CN(C)CCC2)C(C)(C)C` [Compound 442, N-((S)-3,3-dimethyl-1-(methylamino)-1-oxobutan-2-yl)-3-(3,5-dimethylisoxazol-4-yl)-8-methyl-6,7,8,9-tetrahydro-5H-imidazo[1,5-a][1,4]diazepine-1-carboxamide], the “+/− RCB2” value on rat CB2 receptor (rCB2) was “+”. Also, the “+/− HCB1” value in experiment [1] was “+”.

Consider `CNC(=O)[C@@H](NC(=O)c1nc(-c2ccc(C)o2)n2c1CN(C)CCC2)C(C)(C)C` [Compound 443, (S)-N-(3,3-dimethyl-1-(methylamino)-1-oxobutan-2-yl)-8-methyl-3-(5-methylfuran-2-yl)-6,7,8,9-tetrahydro-5H-imidazo[1,5-a][1,4]diazepine-1-carboxamide], for which, at rat CB2 receptor (rCB2), the “+/− RCB2” value was “−”. The same compound yielded an EC50 in experiment [1] of over 10 µM.

Turning to `CNC(=O)[C@@H](NC(=O)c1nc(-c2cccc3cccnc23)n2c1CN(C)CCC2)C(C)(C)C` [Compound 444], at rat CB2 receptor (rCB2), the “+/− RCB2” value is recorded as “−”. Moreover, the EC50 in experiment [1] is over 10 µM.

In the case of `CNC(=O)[C@@H](NC(=O)c1nc(/C=C/CC2CCCC2)n2c1CN(C)CCC2)C(C)(C)C` [Compound 445, (S,E)-3-(3-cyclopentylprop-1-enyl)-N-(3,3-dimethyl-1-(methylamino)-1-oxobutan-2-yl)-8-methyl-6,7,8,9-tetrahydro-5H-imidazo[1,5-a][1,4]diazepine-1-carboxamide], the “+/− RCB2” value on rat CB2 receptor (rCB2) is recorded as “−”. For the same compound, the half-maximal effective concentration (EC50) in experiment [1] was over 10 µM.

Turning to `CNC(=O)[C@@H](NC(=O)c1nc(/C=C/c2ccsc2)n2c1CN(C)CCC2)C(C)(C)C` [Compound 446], the “+/− RCB2” value on rat CB2 receptor (rCB2) is listed as “+”. This compound also had an EC50 in experiment [1] of over 10 µM.

In the case of `CNC(=O)[C@@H](NC(=O)c1nc(-c2cnn(C)c2)n2c1CN(C)CCC2)C(C)(C)C` [Compound 447, (S)-N-(3,3-dimethyl-1-(methylamino)-1-oxobutan-2-yl)-8-methyl-3-(1-methyl-1H-pyrazol-4-yl)-6,7,8,9-tetrahydro-5H-imidazo[1,5-a][1,4]diazepine-1-carboxamide], the “+/− RCB2” value at rat CB2 receptor (rCB2) is listed as “+”. Besides, in experiment [1], the “+/− HCB1” value is given as “+”.

Take `CNC(=O)[C@@H](NC(=O)c1nc(C2=CCC3(CC2)OCCO3)n2c1CN(C)CCC2)C(C)(C)C` [Compound 448, (S)-N-(3,3-dimethyl-1-(methylamino)-1-oxobutan-2-yl)-8-methyl-3-(1,4-dioxaspiro[4.5]dec-7-en-8-yl)-6,7,8,9-tetrahydro-5H-imidazo[1,5-a][1,4]diazepine-1-carboxamide]: at rat CB2 receptor (rCB2), the “+/− RCB2” value is on record as “+”. In addition, in experiment [1], the “+/− HCB1” value is “+”.

In the case of `CNC(=O)[C@@H](NC(=O)c1nc(C2=CCC(C)CC2)n2c1CN(C)CCC2)C(C)(C)C` (stereo partly drawn) [Compound 449, N-((S)-3,3-dimethyl-1-(methylamino)-1-oxobutan-2-yl)-8-methyl-3-(4-methylcyclohex-1-enyl)-6,7,8,9-tetrahydro-5H-imidazo[1,5-a][1,4]diazepine-1-carboxamide], the “+/− RCB2” value at rat CB2 receptor (rCB2) was “+”. For the same compound, in experiment [1], the “+/− HCB1” value is “+”.

Regarding `CNC(=O)[C@@H](NC(=O)c1nc(-c2ccncc2F)n2c1CN(C)CCC2)C(C)(C)C` [Compound 451, (S)-N-(3,3-dimethyl-1-(methylamino)-1-oxobutan-2-yl)-3-(3-fluoropyridin-4-yl)-8-methyl-6,7,8,9-tetrahydro-5H-imidazo[1,5-a][1,4]diazepine-1-carboxamide], the “+/− RCB2” value at rat CB2 receptor (rCB2) is “+”. In addition, the “+/− HCB1” value in experiment [1] is given as “+”.

As for `C=C(c1nc(C(=O)N[C@H](C(=O)NC)C(C)(C)C)c2n1CCCN(C)C2)C(F)(F)F` [Compound 453, (S)-N-(3,3-dimethyl-1-(methylamino)-1-oxobutan-2-yl)-8-methyl-3-(3,3,3-trifluoroprop-1-en-2-yl)-6,7,8,9-tetrahydro-5H-imidazo[1,5-a][1,4]diazepine-1-carboxamide], at rat CB2 receptor (rCB2), the “+/− RCB2” value is listed as “+”. This compound also gave a concentration for a half-maximal effect (EC50) in experiment [1] of over 10 µM.

Regarding `CNC(=O)[C@@H](NC(=O)c1nc(C(C)=C(C)C)n2c1CN(C)CCC2)C(C)(C)C` [Compound 454, (S)-N-(3,3-dimethyl-1-(methylamino)-1-oxobutan-2-yl)-8-methyl-3-(3-methylbut-2-en-2-yl)-6,7,8,9-tetrahydro-5H-imidazo[1,5-a][1,4]diazepine-1-carboxamide], the “+/− RCB2” value at rat CB2 receptor (rCB2) is recorded as “−”. Besides, the “+/− HCB1” value in experiment [1] is “+”.

Consider `C=C(c1ccccc1)c1nc(C(=O)N[C@H](C(=O)NC)C(C)(C)C)c2n1CCCN(C)C2` [Compound 455, (S)-N-(3,3-dimethyl-1-(methylamino)-1-oxobutan-2-yl)-8-methyl-3-(1-phenylvinyl)-6,7,8,9-tetrahydro-5H-imidazo[1,5-a][1,4]diazepine-1-carboxamide], for which, at rat CB2 receptor (rCB2), the “+/− RCB2” value was “+”. Also, the EC50 in experiment [1] is over 10 µM.

With `CNC(=O)[C@@H](NC(=O)c1nc(C2=CCCC2)n2c1CN(C)CCC2)C(C)(C)C` [Compound 456], the “+/− RCB2” value on rat CB2 receptor (rCB2) is listed as “+”. This compound also returned a 50% effective concentration (EC50) in experiment [1] of over 10 µM.

As to `CNC(=O)[C@@H](NC(=O)c1nc(C2=CCCCCC2)n2c1CN(C)CCC2)C(C)(C)C` [Compound 457, (S,E)-3-cycloheptenyl-N-(3,3-dimethyl-1-(methylamino)-1-oxobutan-2-yl)-8-methyl-6,7,8,9-tetrahydro-5H-imidazo[1,5-a][1,4]diazepine-1-carboxamide], at rat CB2 receptor (rCB2), the “+/− RCB2” value is on record as “−”. The compound further gave an EC50 in experiment [1] of over 10 µM.

For the compound `CNC(=O)[C@@H](NC(=O)c1nc(/C=C/Cc2ccccc2)n2c1CN(C)CCC2)C(C)(C)C` [Compound 458, (S,E)-N-(3,3-dimethyl-1-(methylamino)-1-oxobutan-2-yl)-8-methyl-3-(3-phenylprop-1-enyl)-6,7,8,9-tetrahydro-5H-imidazo[1,5-a][1,4]diazepine-1-carboxamide], the “+/− RCB2” value on rat CB2 receptor (rCB2) was “−”. The “+/− HCB1” value in experiment [1] is on record as “+”.
